Calls of active or inactive are those of the source. The calls are words filed in the database; no cut-off is given here.
Columns and labels:
[1] = molecular target: Neurotensin receptor type 1 (Homo sapiens) (UniProt P30989); test: Displacement of [125I]Tyr3-neurotensin from human recombinant Neurotensin receptor at 10 uM incubated for 60 mins by radiometric based scintillation counter assay relative to control
[2] = molecular target: Muscarinic acetylcholine receptor M5 (Homo sapiens) (UniProt P08912); test: Displacement of [3H]4-DAMP from human recombinant muscarinic M5 receptor at 10 uM incubated for 60 mins by radiometric based scintillation counter assay relative to control
[3] = molecular target: D(1B) dopamine receptor (Homo sapiens) (UniProt P21918); test: Displacement of [3H]SCH 23390 from human recombinant dopamine D5 receptor at 10 uM incubated for 60 mins by radiometric based scintillation counter assay relative to control
[4] = Cmax in cynomolgus monkey at 5 mg/kg, po administered for 12 hrs by HPLC analysis; format: ADME, organism-based, Macaca fascicularis; conditions: in vivo
[5] = system: P2Y purinergic receptor (Rattus norvegicus); test: Displacement of [35S]dATPalpha S from rat brain P2Y-purinergic receptor at 10 uM incubated for 60 mins by radiometric based scintillation counter assay relative to control
[6] = species: Rattus norvegicus; test: Displacement of [3H]batrachotoxinin from rat brain Voltage-gated Na+ channel (site 2) at 10 uM incubated for 60 mins by radiometric based scintillation counter assay relative to control; format: tissue-based
[7] = molecular target: T1, Endothelin-1 receptor (Homo sapiens, UniProt P25101); test: Antagonist activity at ETA receptor in endothelin-1 stimulated human Pericardial smooth muscle cell assessed as inhibition of […] in presence of myo-[3H] inositol by anion exchange chromatography; format: functional, cell-based
T1 sequence (P25101 whole entry): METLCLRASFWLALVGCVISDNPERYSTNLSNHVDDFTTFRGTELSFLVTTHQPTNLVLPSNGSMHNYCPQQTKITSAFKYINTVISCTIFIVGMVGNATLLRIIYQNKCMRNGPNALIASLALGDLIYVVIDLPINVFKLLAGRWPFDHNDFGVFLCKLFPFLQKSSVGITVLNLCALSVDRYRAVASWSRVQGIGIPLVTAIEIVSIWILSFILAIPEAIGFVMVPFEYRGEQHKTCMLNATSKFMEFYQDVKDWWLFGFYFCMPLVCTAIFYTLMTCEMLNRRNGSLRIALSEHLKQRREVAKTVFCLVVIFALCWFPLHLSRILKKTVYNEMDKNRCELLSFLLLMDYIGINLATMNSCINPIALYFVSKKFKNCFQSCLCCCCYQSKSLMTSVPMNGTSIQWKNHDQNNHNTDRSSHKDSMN

[8] = molecular target: T2, Endothelin-1 receptor (Rattus norvegicus, UniProt P26684); test: Displacement of [125I]endhothelin-1 from ETA receptor in rat MMQ cells Membrane at 25 degC incubated for 3 hrs by radioligand competition binding assay; format: cell membranes
T2 sequence (P26684 whole entry): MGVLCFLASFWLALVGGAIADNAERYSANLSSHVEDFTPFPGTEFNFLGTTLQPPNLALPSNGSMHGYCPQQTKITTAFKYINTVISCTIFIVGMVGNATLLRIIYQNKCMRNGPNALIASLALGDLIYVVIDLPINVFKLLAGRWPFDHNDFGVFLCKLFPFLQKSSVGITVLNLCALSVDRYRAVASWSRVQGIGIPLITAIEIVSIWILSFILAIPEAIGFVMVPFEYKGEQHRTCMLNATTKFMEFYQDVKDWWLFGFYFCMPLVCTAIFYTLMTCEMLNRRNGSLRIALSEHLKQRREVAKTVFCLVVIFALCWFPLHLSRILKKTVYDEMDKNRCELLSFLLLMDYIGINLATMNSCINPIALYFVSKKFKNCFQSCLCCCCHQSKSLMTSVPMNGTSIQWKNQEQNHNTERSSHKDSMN

[9] = molecular target: T3, Endothelin-1 receptor (Homo sapiens) (UniProt P25101); test: Antagonist activity at ETA receptor in human Pericardial smooth muscle cell assessed as inhibition of […] in presence of myo-[3H] inositol by anion exchange chromatography; format: functional, cell-based
T3 sequence (whole entry): T1 sequence (P25101 whole entry)

[10] = molecular target: T4, Endothelin-1 receptor (Rattus norvegicus) (UniProt P26684); test: In vivo antagonist activity to ETA receptor in endothelin-1 induced Sprague-Dawley rat assessed as reduction of vasopressor response at 30 mg/kg, po administered for 4 to 8 hrs; format: functional, organism-based; conditions: time 4-8 hrs
T4 sequence (whole entry): T2 sequence (P26684 whole entry)

[11] = Cmax in Sprague-Dawley rat at 10 mg/kg, po administered for 12 hrs by HPLC analysis; format: ADME, organism-based; conditions: in vivo
[12] = molecular target: 5-hydroxytryptamine receptor 5A (Homo sapiens) (UniProt P47898); test: Displacement of [3H]LSD from human recombinant 5-Hydroxytryptamine 5A at 10 uM incubated for 120 mins by radiometric based scintillation counter assay relative to control
[13] = species: Homo sapiens; test: Displacement of [3H]BRL 43694 from human recombinant 5-Hydroxytryptamine 3 at 10 uM incubated for 120 mins by radiometric based scintillation counter assay relative to control
[14] = Cmax in Beagle dog at 5 mg/kg, po administered for 12 hrs by HPLC analysis; format: ADME, organism-based, Canis lupus familiaris; conditions: in vivo
[15] = molecular target: D(1A) dopamine receptor (Homo sapiens) (UniProt P21728); test: Displacement of [3H]SCH 23390 from human recombinant dopamine D1 receptor at 10 uM incubated for 60 mins by radiometric based scintillation counter assay relative to control
[16] = molecular target: 5-hydroxytryptamine receptor 7 (Homo sapiens) (UniProt P34969); test: Displacement of [3H]LSD from human recombinant 5-Hydroxytryptamine 7 at 10 uM incubated for 120 mins by radiometric based scintillation counter assay relative to control
[17] = molecular target: Neuropeptide Y receptor type 1 (Homo sapiens) (UniProt P25929); test: Displacement of [125I]peptide YY from human recombinant Y1 receptor at 10 uM incubated for 120 mins by radiometric based scintillation counter assay relative to control
[18] = molecular target: Sigma non-opioid intracellular receptor 1 (Homo sapiens) (UniProt Q99720); test: Displacement of [3H]DTG from human sigma-Receptor at 10 uM incubated for 120 mins by radiometric based scintillation counter assay relative to control
[19] = molecular target: Neuromedin-K receptor (Homo sapiens) (UniProt P29371); test: Displacement of [3H]SR 142801 from human recombinant NK3 tachykinin receptor at 10 uM incubated for 120 mins by radiometric based scintillation counter assay relative to control
[20] = molecular target: Beta-1 adrenergic receptor (Homo sapiens) (UniProt P08588); test: Displacement of [3H](-)CGP 12177 from human recombinant beta1-adrenoceptor at 10 uM incubated for 60 mins by radiometric based scintillation counter assay relative to control
[21] = species: Rattus norvegicus; test: Displacement of [3H]GABA from rat brain GABA receptor at 10 uM incubated for 60 mins by radiometric based scintillation counter assay relative to control; format: tissue-based
[22] = molecular target: Vasoactive intestinal polypeptide receptor 1 (Homo sapiens) (UniProt P32241); test: Displacement of [125I]VIP from human recombinant Vasoactive intestinal peptide receptor at 10 uM incubated for 60 mins by radiometric based scintillation counter assay relative to control
[23] = molecular target: Muscarinic acetylcholine receptor M1 (Homo sapiens) (UniProt P11229); test: Displacement of [3H]pirenzepine from human recombinant muscarinic M1 receptor at 10 uM incubated for 60 mins by radiometric based scintillation counter assay relative to control

Beta-1 adrenergic receptor (Homo sapiens), sequence (P08588 whole entry, looked up): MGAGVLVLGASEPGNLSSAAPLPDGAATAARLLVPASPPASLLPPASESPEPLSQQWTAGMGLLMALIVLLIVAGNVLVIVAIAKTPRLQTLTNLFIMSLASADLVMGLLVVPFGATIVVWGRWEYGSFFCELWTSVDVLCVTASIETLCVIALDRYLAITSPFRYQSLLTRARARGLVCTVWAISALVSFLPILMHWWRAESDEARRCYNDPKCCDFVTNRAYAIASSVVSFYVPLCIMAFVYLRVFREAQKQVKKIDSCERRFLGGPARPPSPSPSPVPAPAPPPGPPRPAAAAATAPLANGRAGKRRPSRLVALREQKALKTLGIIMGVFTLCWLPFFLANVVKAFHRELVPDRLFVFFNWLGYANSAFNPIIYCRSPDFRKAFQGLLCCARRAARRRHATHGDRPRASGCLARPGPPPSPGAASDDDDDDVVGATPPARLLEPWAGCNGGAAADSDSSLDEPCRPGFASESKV
5-hydroxytryptamine receptor 7 (Homo sapiens), sequence (P34969 whole entry): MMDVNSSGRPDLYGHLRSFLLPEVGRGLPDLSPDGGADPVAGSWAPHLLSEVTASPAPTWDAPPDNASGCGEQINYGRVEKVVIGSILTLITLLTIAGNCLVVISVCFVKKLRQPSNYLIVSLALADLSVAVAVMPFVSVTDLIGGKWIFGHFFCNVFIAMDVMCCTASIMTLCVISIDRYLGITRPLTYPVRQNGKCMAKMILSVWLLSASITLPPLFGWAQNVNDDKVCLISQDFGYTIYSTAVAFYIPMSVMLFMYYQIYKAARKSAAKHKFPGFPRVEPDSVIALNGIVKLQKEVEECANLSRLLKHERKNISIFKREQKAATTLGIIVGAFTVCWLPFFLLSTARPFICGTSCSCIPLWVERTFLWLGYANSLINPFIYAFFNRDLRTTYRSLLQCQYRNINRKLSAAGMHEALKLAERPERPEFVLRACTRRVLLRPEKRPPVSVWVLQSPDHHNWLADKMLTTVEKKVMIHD
Muscarinic acetylcholine receptor M5 (Homo sapiens), sequence (P08912 whole entry): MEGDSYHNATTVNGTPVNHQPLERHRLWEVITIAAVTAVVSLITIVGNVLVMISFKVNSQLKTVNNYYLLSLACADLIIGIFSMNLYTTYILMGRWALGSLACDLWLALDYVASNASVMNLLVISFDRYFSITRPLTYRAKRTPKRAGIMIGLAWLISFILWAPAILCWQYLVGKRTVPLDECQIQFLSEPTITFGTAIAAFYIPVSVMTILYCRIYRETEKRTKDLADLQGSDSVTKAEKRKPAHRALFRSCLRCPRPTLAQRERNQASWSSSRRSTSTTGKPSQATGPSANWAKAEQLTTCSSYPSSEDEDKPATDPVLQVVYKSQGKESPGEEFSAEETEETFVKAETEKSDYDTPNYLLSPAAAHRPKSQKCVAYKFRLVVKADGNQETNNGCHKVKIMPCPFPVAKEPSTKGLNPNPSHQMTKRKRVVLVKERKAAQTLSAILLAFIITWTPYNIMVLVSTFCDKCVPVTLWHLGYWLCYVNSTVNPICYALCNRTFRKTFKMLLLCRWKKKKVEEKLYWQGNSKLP
Neuropeptide Y receptor type 1 (Homo sapiens), sequence (P25929 whole entry): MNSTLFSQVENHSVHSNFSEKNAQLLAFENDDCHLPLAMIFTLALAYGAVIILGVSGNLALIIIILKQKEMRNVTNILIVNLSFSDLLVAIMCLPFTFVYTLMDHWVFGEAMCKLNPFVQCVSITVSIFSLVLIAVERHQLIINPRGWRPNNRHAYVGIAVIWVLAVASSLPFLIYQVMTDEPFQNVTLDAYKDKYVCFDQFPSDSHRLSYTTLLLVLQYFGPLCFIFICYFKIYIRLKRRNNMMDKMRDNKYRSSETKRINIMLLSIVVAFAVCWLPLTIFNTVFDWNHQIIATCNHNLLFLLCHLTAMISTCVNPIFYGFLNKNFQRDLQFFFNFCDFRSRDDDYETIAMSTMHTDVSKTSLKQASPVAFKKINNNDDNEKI
D(1B) dopamine receptor (Homo sapiens), sequence (P21918 whole entry): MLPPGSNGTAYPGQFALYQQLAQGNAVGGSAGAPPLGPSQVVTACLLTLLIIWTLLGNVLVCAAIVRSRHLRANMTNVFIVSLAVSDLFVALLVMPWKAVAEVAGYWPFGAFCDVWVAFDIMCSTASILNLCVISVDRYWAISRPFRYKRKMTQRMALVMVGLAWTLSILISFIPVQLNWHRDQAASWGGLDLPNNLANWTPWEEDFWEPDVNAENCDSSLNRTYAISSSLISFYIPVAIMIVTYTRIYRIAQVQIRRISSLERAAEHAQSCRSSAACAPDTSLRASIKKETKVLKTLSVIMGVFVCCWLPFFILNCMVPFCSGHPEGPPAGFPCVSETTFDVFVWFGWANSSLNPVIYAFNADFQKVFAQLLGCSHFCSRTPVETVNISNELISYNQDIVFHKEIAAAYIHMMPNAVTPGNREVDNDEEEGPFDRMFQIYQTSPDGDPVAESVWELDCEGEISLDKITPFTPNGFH
D(1A) dopamine receptor (Homo sapiens), sequence (P21728 whole entry): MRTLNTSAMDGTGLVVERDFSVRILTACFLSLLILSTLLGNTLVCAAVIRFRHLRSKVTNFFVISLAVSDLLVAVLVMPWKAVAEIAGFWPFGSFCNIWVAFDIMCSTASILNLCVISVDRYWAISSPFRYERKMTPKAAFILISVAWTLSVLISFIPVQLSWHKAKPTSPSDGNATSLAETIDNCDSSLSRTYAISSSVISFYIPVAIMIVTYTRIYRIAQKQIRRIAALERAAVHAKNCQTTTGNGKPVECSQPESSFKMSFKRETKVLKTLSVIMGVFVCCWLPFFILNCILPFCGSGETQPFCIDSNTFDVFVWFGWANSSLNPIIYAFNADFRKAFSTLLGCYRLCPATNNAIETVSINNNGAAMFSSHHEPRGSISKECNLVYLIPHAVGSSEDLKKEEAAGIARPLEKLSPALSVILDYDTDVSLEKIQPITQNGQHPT
Vasoactive intestinal polypeptide receptor 1 (Homo sapiens), sequence (P32241 whole entry): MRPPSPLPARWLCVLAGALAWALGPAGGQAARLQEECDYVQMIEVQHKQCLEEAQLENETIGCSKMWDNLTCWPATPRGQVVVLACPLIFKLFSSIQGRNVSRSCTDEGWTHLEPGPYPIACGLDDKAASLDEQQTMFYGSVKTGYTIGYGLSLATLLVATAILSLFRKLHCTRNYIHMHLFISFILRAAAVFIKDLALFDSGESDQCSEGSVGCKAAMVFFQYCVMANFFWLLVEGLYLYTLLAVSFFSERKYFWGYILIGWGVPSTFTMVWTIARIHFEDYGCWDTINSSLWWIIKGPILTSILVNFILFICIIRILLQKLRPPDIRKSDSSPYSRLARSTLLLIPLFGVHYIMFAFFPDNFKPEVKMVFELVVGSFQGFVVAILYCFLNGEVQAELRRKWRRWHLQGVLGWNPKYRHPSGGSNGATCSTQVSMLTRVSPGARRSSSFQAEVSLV
Neuromedin-K receptor (Homo sapiens), sequence (P29371 whole entry): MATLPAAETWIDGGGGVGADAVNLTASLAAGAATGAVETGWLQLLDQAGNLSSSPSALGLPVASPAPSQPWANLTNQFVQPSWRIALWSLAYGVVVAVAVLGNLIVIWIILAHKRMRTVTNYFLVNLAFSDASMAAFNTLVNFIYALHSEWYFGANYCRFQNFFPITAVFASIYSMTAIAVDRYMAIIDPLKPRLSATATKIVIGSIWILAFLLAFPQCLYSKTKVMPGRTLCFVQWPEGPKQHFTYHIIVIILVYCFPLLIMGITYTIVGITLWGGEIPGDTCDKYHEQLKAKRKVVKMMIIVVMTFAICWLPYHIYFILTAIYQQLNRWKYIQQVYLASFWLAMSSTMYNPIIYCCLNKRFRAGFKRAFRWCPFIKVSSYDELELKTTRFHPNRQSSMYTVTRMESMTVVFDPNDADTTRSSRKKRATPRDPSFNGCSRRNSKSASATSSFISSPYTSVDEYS
5-hydroxytryptamine receptor 5A (Homo sapiens), sequence (P47898 whole entry): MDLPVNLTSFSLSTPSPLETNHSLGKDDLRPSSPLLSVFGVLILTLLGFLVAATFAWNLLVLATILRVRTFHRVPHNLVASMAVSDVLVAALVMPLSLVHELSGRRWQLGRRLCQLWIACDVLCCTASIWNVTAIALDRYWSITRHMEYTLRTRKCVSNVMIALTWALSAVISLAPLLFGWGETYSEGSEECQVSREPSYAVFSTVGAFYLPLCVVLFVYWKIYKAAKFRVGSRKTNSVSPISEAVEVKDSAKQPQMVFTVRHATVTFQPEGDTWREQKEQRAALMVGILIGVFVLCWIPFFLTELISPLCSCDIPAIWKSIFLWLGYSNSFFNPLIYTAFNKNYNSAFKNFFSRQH
Sigma non-opioid intracellular receptor 1 (Homo sapiens), sequence (Q99720 whole entry): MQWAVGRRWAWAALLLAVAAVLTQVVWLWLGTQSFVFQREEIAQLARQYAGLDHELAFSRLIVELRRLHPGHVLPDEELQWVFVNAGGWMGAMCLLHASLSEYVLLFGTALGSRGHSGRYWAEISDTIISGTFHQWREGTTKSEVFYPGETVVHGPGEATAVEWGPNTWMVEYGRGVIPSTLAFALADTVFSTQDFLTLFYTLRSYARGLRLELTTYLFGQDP
Neurotensin receptor type 1 (Homo sapiens), sequence (P30989 whole entry): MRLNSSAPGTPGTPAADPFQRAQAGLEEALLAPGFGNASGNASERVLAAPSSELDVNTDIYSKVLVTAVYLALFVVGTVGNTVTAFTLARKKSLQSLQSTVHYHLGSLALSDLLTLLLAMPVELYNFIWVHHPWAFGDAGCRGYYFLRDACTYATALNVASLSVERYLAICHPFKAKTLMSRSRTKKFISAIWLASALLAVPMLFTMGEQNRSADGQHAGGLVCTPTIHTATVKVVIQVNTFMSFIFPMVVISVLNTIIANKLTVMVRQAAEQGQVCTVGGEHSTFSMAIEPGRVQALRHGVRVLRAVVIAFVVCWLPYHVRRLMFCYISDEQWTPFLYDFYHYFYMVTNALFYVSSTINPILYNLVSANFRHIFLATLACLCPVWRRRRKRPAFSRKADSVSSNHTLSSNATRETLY

**Q.** With `CCCCN(CCCC)C(=O)CN1[C@H](c2cc(OC)c3c(c2)OCO3)C[C@@H](C(=O)O)[C@@H]1CC(C)(C)CCC` as the compound, how does the inhibition [1] read?
**A.** < 10%

**Q.** What about the inhibition [2] of the same compound?
**A.** < 10%

**Q.** And the inhibition [3]?
**A.** < 10%

**Q.** And the Cmax [4]?
**A.** 1100 ng/mL

**Q.** What about the inhibition [5] of the same compound?
**A.** < 10%

**Q.** And the inhibition [6]?
**A.** < 10%

**Q.** And the IC50 [7]?
**A.** 3.03 nM

**Q.** And the IC50 [8]?
**A.** 0.56 nM

**Q.** And the Activity [9]?
**A.** inactive

**Q.** What about the Activity [10] of the same compound?
**A.** Active

**Q.** And the Cmax [11]?
**A.** 1690 ng/mL

**Q.** And the inhibition [12]?
**A.** < 10%

**Q.** What about the inhibition [13] of the same compound?
**A.** < 10%

**Q.** What about the Cmax [14] of the same compound?
**A.** 1970 ng/mL

**Q.** What about the inhibition [15] of the same compound?
**A.** 14%

**Q.** And the inhibition [16]?
**A.** < 10%

**Q.** What about the inhibition [17] of the same compound?
**A.** < 10%

**Q.** What about the inhibition [18] of the same compound?
**A.** < 10%

**Q.** What about the inhibition [19] of the same compound?
**A.** < 10%

**Q.** What about the inhibition [20] of the same compound?
**A.** < 10%

**Q.** And the inhibition [21]?
**A.** < 10%

**Q.** What about the inhibition [22] of the same compound?
**A.** < 10%

**Q.** What about the inhibition [23] of the same compound?
**A.** < 10%

Reference: ChEMBL document CHEMBL5678795 (Eur J Pharmacol, 1999)
